Where a name gives a salt, the structure may show the parent alone.

One assay deals with Mycobacterium tuberculosis H37Rv. The assay can be described thus: Mycobacterium tuberculosis H37Rv Inhibition Assay (resazurin, MIC). The assay is classed as cell-based. The conditions noted are these: ATCC 25618 / H37Rv, 144 h, H37Rv strain (ATCC25618), Middlebrook 7H9+ADC, six days at 37° C., resazurin fluorescence after 48 hours, read-out: MIC value. (Alamar Blue is a resazurin reagent that responds to reducing activity.)
As usually defined, the MIC is the smallest concentration in the dilution series that meets the test's criterion for growth inhibition. With `O=c1ccc2ccc(=O)n3c2n1CC3CN1CCC(NCc2cc3c(cn2)OCCS3)CC1` (racemic) [Example 63, 1-[(4-{[(2,3-Dihydro[1,4]oxathiino[2,3-c]pyridin-7-yl)methyl]amino}-1-piperidinyl)methyl]-1,2-dihydro-4H,9H-imidazo[1,2,3-ij]-1,8-naphthyridine-4,9-dione hydrochloride (2:1 mixture of R:S)], the MIC was < 2 mg/L.
For `O=C1CSc2cc(Br)c(CNC3CCN(CC4Cn5c(=O)ccc6ccc(=O)n4c65)CC3)nc2N1` (stereo not shown) [Example 4, 1-({4-[(7-Bromo-3-oxo-3,4-Dihydro-2H-pyrido[3,2-b][1,4]thiazin-6-yl-methyl)amino-1-piperidinyl}methyl)1,2-dihydro-4H,9H-imidazo[1,2,3-ij]-1,8-naphthyridine-4,9-dione hydrochloride], the MIC is < 2 mg/L.
Same read-out and setting: as for `CC1(NCc2cc3c(cn2)OCCS3)CCN(C[C@@H]2Cn3c(=O)ccc4ccc(=O)n2c43)CC1` [Example 23, (1R)-1-({4-[(2,3-Dihydro[1,4]oxathiino[2,3-c]pyridin-7-ylmethyl)amino]-4-methyl-1-piperidinyl}methyl)-1,2-dihydro-4H,9H-imidazo[1,2,3-ij]-1,8-naphthyridine-4,9-dione hydrochloride], the figure is < 2 mg/L; as for `CC1(NCc2cc3c(cn2)OCS3)CCN(C[C@@H]2Cn3c(=O)ccc4ccc(=O)n2c43)CC1` [Example 24, (1R)-1-({4-Methyl-4-[([1,3]oxathiolo[5,4-c]pyridin-6-ylmethyl)amino]-1-piperidinyl}methyl)-1,2-dihydro-4H,9H-imidazo[1,2,3-ij]-1,8-naphthyridine-4,9-dione hydrochloride], < 2 mg/L.
For `O=c1ccc2ncc(=O)n3c2n1C[C@H]3CN1CCC(NCc2cc3c(cn2)SCO3)CC1` [Example 28, (2R)-2-({4-[([1,3]Oxathiolo[4,5-c]pyridin-6-ylmethyl)amino]-1-piperidinyl}methyl)-1,2-dihydro-3H,8H-2a,5,8a-triazaacenaphthylene-3,8-dione hydrochloride], the MIC was < 2 mg/L.
Same read-out and setting: the figure for `O=C1CSc2ccc(CNC3CCN(C[C@@H]4Cn5c(=O)ccc6ncc(=O)n4c65)CC3)nc2N1` [Example 29, (2R)-2-[(4-{[(3-Oxo-3,4-dihydro-2H-pyrido[3,2-b][1,4]thiazin-6-yl)methyl]amino}-1-piperidinyl)methyl]-1,2-dihydro-3H,8H-2a,5,8a-triazaacenaphthylene-3,8-dione hydrochloride] is < 2 mg/L; for `O=c1ccc2ccc(=O)n3c2n1C[C@H]3CN1CCC(NCc2ccc3c(c2)OCCO3)CC1` [Example 30, (1R)-1-({4-[(2,3-Dihydro-1,4-benzodioxin-6-ylmethyl)amino]-1-piperidinyl}methyl)-1,2-dihydro-4H,9H-imidazo[1,2,3-ij]-1,8-naphthyridine-4,9-dione hydrochloride] it is < 2 mg/L.
Still for that read-out and setting: the figure for `O=c1ccc2ccc(=O)n3c2n1C[C@H]3CN1CCC(NCc2cc(F)c3c(c2)OCCO3)CC1` [Example 31, (1R)-1-[(4-{[(8-Fluoro-2,3-dihydro-1,4-benzodioxin-6-yl)methyl]amino}-1-piperidinyl)methyl]-1,2-dihydro-4H,9H-imidazo[1,2,3-ij]-1,8-naphthyridine-4,9-dione hydrochloride] is < 2 mg/L; for `O=C1COc2cc(Cl)c(CNC3CCN(C[C@@H]4Cn5c(=O)ccc6ccc(=O)n4c65)CC3)nc2N1` [Example 32, (1R)-1-[(4-{[(7-Chloro-3-oxo-3,4-dihydro-2H-pyrido[3,2-b][1,4]oxazin-6-yl)methyl]amino}-1-piperidinyl)methyl]-1,2-dihydro-4H,9H-imidazo[1,2,3-ij]-1,8-naphthyridine-4,9-dione dihydrochloride] it is < 2 mg/L.

Still in this assay, the particulars now being: ATCC 25618 / H37Rv, 144 h, read-out: MIC value, H37Rv strain (ATCC25618), Middlebrook 7H9+ADC, six days at 37° C., resazurin fluorescence after 48 hours.
As to `O=c1ccc2ncc(=O)n3c2n1CC3CN1CCC(NCc2cc3c(cn2)OCCS3)CC1` (racemic) [Example 20, 2-({4-[(2,3-Dihydro[1,4]oxathiino[2,3-c]pyridin-7-ylmethyl)amino]-1-piperidinyl}methyl)-1,2-dihydro-3H,8H-2a,5,8a-triazaacenaphthylene-3,8-dione hydrochloride], the minimum inhibitory concentration (MIC) is < 2 mg/L.
On the same count and under the same terms, as for `O=c1ccc2ccc(=O)n3c2n1CC3CN1CCC(NCc2cc3c(cn2)OCS3)CC1` (stereo not shown) [Example 2, 1-({4-[([1,3]Oxathiolo[5,4-c]pyridin-6-ylmethyl)amino]-1-piperidinyl}methyl)-1,2-dihydro-4H,9H-imidazo[1,2,3-ij]-1,8-naphthyridine-4,9-dione hydrochloride], the figure is < 2 mg/L.
On the same count and under the same terms, the figure for `O=c1ccc2ccc(=O)n3c2n1C[C@H]3CN1CCC(NCc2cc3c(cn2)OCS3)CC1` [Example 5A, (1R)-1-({4-[([1,3]Oxathiolo[5,4-c]pyridin-6-ylmethyl)amino]-1-piperidinyl}methyl)-1,2-dihydro-4H,9H-imidazo[1,2,3-ij]-1,8-naphthyridine-4,9-dione hydrochloride] is < 2 mg/L; for `O=c1ccc2ccc(=O)n3c2n1C[C@H]3CN1CCC(NCc2cc3c(cn2)OCCS3)CC1` [Example 6A, (1R)-1-({4-[(2,3-Dihydro[1,4]oxathiino[2,3-c]pyridin-7-ylmethyl)amino]-1-piperidinyl}methyl)-1,2-dihydro-4H,9H-imidazo[1,2,3-ij]-1,8-naphthyridine-4,9-dione hydrochloride] it is < 2 mg/L.
Same read-out and setting: the figure for `O=c1ccc2ccc(=O)n3c2n1C[C@H]3CN1CCC(NCc2cc3c(cn2)CCCC3)CC1` [Example 7, (1R)-1-({4-[(5,6,7,8-Tetrahydro-3-isoquinolinylmethyl)amino]-1-piperidinyl}methyl)-1,2-dihydro-4H,9H-imidazo[1,2,3-ij]-1,8-naphthyridine-4,9-dione hydrochloride] is < 2 mg/L; for `O=c1ccc2ccc(=O)n3c2n1C[C@H]3CN1CCC(NCc2cc3c(cn2)CCC3)CC1` [Example 8, (1R)-1-({4-[(6,7-Dihydro-5H-cyclopenta[c]pyridin-3-ylmethyl)amino]-1-piperidinyl}methyl)-1,2-dihydro-4H,9H-imidazo[1,2,3-ij]-1,8-naphthyridine-4,9-dione hydrochloride] it is < 2 mg/L.
In the case of `O=c1cnc2ccc(=O)n3c2n1C[C@H]3CN1CCC(NCc2cc3c(cn2)OCS3)CC1` [Example 13A, (1R)-1-({4-[([1,3]Oxathiolo[5,4-c]pyridin-6-ylmethyl)amino]-1-piperidinyl}methyl)-1,2-dihydro-3H,8H-2a,5,8a-triazaacenaphthylene-3,8-dione hydrochloride], the MIC is < 2 mg/L.
Same read-out and setting: the figure for `O=c1cnc2ccc(=O)n3c2n1C[C@H]3CN1CCC(NCc2cc3c(cn2)OCCS3)CC1` [Example 14, (1R)-1-({4-[(2,3-Dihydro-[1,4]oxathiino[2,3-c]pyridin-7-ylmethyl)amino]-1-piperidinyl}methyl)-1,2-dihydro-3H,8H-2a,5,8a-triazaacenaphthylene-3,8-dione hydrochloride] is < 2 mg/L.
Same read-out and setting: as for `O=c1ccc2ncc(=O)n3c2n1C[C@H]3CN1CCC(NCc2cc3c(cn2)OCS3)CC1` [Example 16A, (2R)-2-({4-[([1,3]Oxathiolo[5,4-c]pyridin-6-ylmethyl)amino]-1-piperidinyl}methyl)-1,2-dihydro-3H,8H-2a,5,8a-triazaacenaphthylene-3,8-dione hydrochloride], the figure is < 2 mg/L; as for `O=c1ccc2ncc(=O)n3c2n1C[C@H]3CN1CCC(NCc2cc3c(cn2)OCCS3)CC1` [Example 19A, (2R)-2-({4-[(2,3-Dihydro[1,4]oxathiino[2,3-c]pyridin-7-ylmethyl)amino]-1-piperidinyl}methyl)-1,2-dihydro-3H,8H-2a,5,8a-triazaacenaphthylene-3,8-dione hydrochloride], < 2 mg/L; as for `O=c1ccc2ncc(=O)n3c2n1C[C@H]3CN1CCC(NCc2ccc3nsnc3c2)CC1` [Example 25, (2R)-2-({4-[(2,1,3-Benzothiadiazol-5-ylmethyl)amino]-1-piperidinyl}methyl)-1,2-dihydro-3H,8H-2a,5,8a-triazaacenaphthylene-3,8-dione hydrochloride], ≤ 1 mg/L.
Same read-out and setting: as for `O=c1ccc2ncc(=O)n3c2n1C[C@H]3CN1CCC(NCc2cc3c(cc2F)OCCO3)CC1` [Example 26, (2R)-2-[(4-{[(7-Fluoro-2,3-dihydro-1,4-benzodioxin-6-yl)methyl]amino}-1-piperidinyl)methyl]-1,2-dihydro-3H,8H-2a,5,8a-triazaacenaphthylene-3,8-dione hydrochloride], the figure is ≤ 1 mg/L.
As for `O=C1CSc2cnc(CNC3CCN(C[C@@H]4Cn5c(=O)ccc6ccc(=O)n4c65)CC3)nc2N1` [Example 34, (1R)-1-[(4-{[(7-Oxo-6,7-dihydro-1H-pyrimido[5,4-b][1,4]thiazin-2-yl)methyl]amino}-1-piperidinyl)methyl]-1,2-dihydro-4H,9H-imidazo[1,2,3-ij]-1,8-naphthyridine-4,9-dione dihydrochloride], the minimum inhibitory concentration (MIC) is < 2 mg/L.
On the same count and under the same terms, as for `O=c1cnc2ccc(=O)n3c2n1C[C@H]3CN1CCC(NCc2cc3c(cn2)OCCC3)CC1` [Example 37, (1R)-1-({4-[(3,4-Dihydro-2H-pyrano[2,3-c]pyridin-6-ylmethyl)amino]-1-piperidinyl}methyl)-1,2-dihydro-3H,8H-2a,5,8a-triazaacenaphthylene-3,8-dione hydrochloride], the figure is < 2 mg/L.
In the case of `O=c1ccc2ncc(=O)n3c2n1C[C@H]3CN1CCC(NCc2ccc3c(c2)OCCO3)CC1` [Example 40, (2R)-2-({4-[(2,3-Dihydro-1,4-benzodioxin-6-ylmethyl)amino]-1-piperidinyl}methyl)-1,2-dihydro-3H,8H-2a,5,8a-triazaacenaphthylene-3,8-dione hydrochloride], the MIC was < 2 mg/L.
The same measure, in the same setting: as for `N#Cc1cc(CNC2CCN(C[C@@H]3Cn4c(=O)ccc5ncc(=O)n3c54)CC2)cc2c1OCCO2` [Example 42, 7-{[(1-{[(2R)-3,8-Dioxo-1,2-dihydro-3H,8H-2a,5,8a-triazaacenaphthylen-2-yl]methyl}-4-piperidinyl)amino]methyl}-2,3-dihydro-1,4-benzodioxin-5-carbonitrile hydrochloride], the figure is < 2 mg/L.

These data come from patent US8389524B2, “Tricyclic nitrogen containing compounds as antibacterial agents” (Glaxo Group Limited, priority 2007, dated 2013).
